Experimental data published in US10238630B2, “Use of eribulin and poly (ADP ribose) polymerase (PARP) inhibitors as combination therapy for the treatment of cancer” (Eisai R&D Management Co., Ltd., priority 2014, dated 2019).
“Also recorded” adds a separate entry of the source. Counter-ions that a name gives are not always drawn.

Legend:
[1] = system: HCC1806 human breast cancer xenografts; test: Antitumor activity against subcutaneous HCC1806 human breast cancer xenografts in athymic mice; assay type: in vivo
Procedure: HCC1806 human triple negative breast cancer cells, wild type for BRCA and PTEN, were maintained in monolayer cultures in RPMI-1640 growth medium supplemented with 10% fetal bovine serum at 37° C. in a 5% CO2 humidified incubator. On the day of inoculation, cells were harvested by trypsinization, washed, and resuspended in ice-cold PBS. Female immunodeficient athymic mice were inoculated subcutaneously near the right axillary area using a 26-gauge needle with HCC1806 cells (2.5×10^6) in a 0.1 mL volume. A total of 60 mice, approximately 6 weeks old were implanted with cells.
E7449 and E7389 were evaluated as single agents and in combination for anti-tumor activity against HCC1806 human breast cancer xenografts in athymic mice. The experiment consisted of a vehicle-treated control group, an E7449 single agent-treated group, two groups treated with single agent E7389 and 2 combination drug-treated groups (Table 7). Each group was composed of 8 mice for a total of 48 mice on the first day of treatment. Sixty mice were inoculated with HCC1806 cells and on day 5 following implantation, tumor volumes were measured and mice were randomized into the 6 treatment groups based on tumor volume (average of 150 mm^3). Following randomization drug treatment was initiated (Day 5). E7449 was formulated in 0.5% methyl cellulose and orally administrated daily at 100 mg/kg based on body weight at 0.1 mL per 10 g. E7449 was administered once daily for 28 days (starting on Day 5) as a single agent or in combination with E7389. E7389 was formulated in saline and was administered intravenously once every 4 days 4 times (Day 5, 9, 13, and 17) at a dosage of 0.1 or 0.4 mg/kg as single agent or in combination with E7449, based on body weight at 0.1 mL per 10 g. The control group was treated with oral vehicle (0.5% methyl cellulose in water) daily and intravenous vehicle (saline) once every 4 days, 4 times. E7449 or vehicle was administered first and when dosing of all animals was complete E7389 was administered to animals receiving the combination.
Tumor dimensions were recorded twice per week starting at the initiation of drug treatment. […] The data generated consist of group mean tumor volumes and group mean body weights at each measurement.
Drug treatment was initiated following randomization on Day 5 (5 days post tumor implantation) and continued for 28 days. Animals whose tumor measurement reached ≥2 cm at the longest axis were euthanized prior to study termination. The study was terminated on Day 38. Statistical analysis was performed on Day 20.
Statistical analysis of the vehicle group (A) versus all drug treatment groups (B, C, D, E and F) was performed by a one way analysis of variance (ANOVA) for tumor volume followed by Dunnett's multiple comparison test. […]

BR1474 = test: Antitumor effect in patient-derived xenograft (PDx) BR1474 of triple negative breast cancer in athymic mice; assay type: in vivo, human

Row | Compound | antitumor effect (tumor volume) ([1]; E7389 0.1 mg/kg IV Q4Dx4, single agent) | antitumor effect (tumor volume) ([1]; E7389 0.4 mg/kg IV Q4Dx4, single agent) | antitumor effect (tumor volume), dose dependence ([1]; E7389 0.1 and 0.4 mg/kg IV Q4Dx4, single agent) | antitumor effect (tumor volume) (BR1474; E7389 0.3 mg/kg, single agent) | antitumor effect (tumor volume) ([1]; E7449 100 mg/kg PO QDx28, single agent, 100 mg/kg) | sensitivity of the model among the three PDx models (BR1474; E7449 as a single agent)
1 | C=C1C[C@@H]2CC[C@@]34C[C@H]5OC6[C@@H](O[C@H]7CC[C@H](CC(=O)C[C@@H]8[C@@H](OC)[C@@H](C[C@H](O)CN)O[C@H]8C[C@H]8O[C@@H](CC[C@@H]1O2)C[C@@H](C)C8=C)O[C@@H]7[C@@H]6O3)[C@H]5O4 [E7389, 11, 15:18,21:24,28-triepoxy-7,9-ethano-12,15-methano-9H,15H-furo[3,2-i]furo[2′,3′:5,6]pyrano[4,3-b] [1,4]dioxacyclopentacosin-5(4H)-one, 2-[(2S)-3-amino-2-hydroxypropyl]hexacosahydro-3-methoxy-26-methyl-20,27-bis(methylene)-, (2R,3R,3aS,7R,8aS,9S,10aR,11S,12R,13aR,13bS,15S,18S,21S,24S,26R,28R,29aS)-methanesulfonate (salt)] | tumor growth inhibition | tumor regression | Dose-dependent antitumor activity | enhanced antitumor activity |  | 
2 | O=c1[nH]nc2c3c(cccc13)N=C(CN1Cc3ccccc3C1)N2 [E7449] |  |  |  |  | no effect on tumor growth; also recorded: No antitumor activity | most sensitive
